In patent US20100143890A1 (priority 2008, published 2010):

Tested on: AI virus proteins (3425P and 3427P, ProSci Inc.); H5 protein
Assay type: binding, avian influenza virus

SMILES | binding properties compared with commercially available antibody
CC(=O)N[C@H]1[C@H]([C@H](O)[C@H](O)CO)O[C@@](O[C@H]2[C@@H](O)[C@@H](CO)O[C@@H](O[C@H]3[C@H](O)[C@@H](O)C(O)O[C@@H]3CO)[C@@H]2O)(C(=O)O)C[C@@H]1O (some centres unmarked) [3-silaiic-lactose] | not active
CC(=O)NC1C(O)CC(OCC2OC(OC3C(CO)OC(O)C(O)C3O)C(O)C(O)C2O)(C(=O)O)OC1C(O)C(O)CO (centres unmarked) [6′-sialic lactose] | not active
